Source: ChEMBL document CHEMBL3044945, “Synthesis of 1,3,5-trisubstituted pyrazoline nucleus containing compounds and screening for antimicrobial activity” (2012)
≈ marks a conversion by molar mass, not a printed value.

Tests used:
Format in all cases: functional
[1] = test system: Bacillus subtilis; experiment: Antibacterial activity against Bacillus subtilis MTCC 441 at 1000 ug/ml after 48 hr by cup-plate method; conditions: MTCC 441, 48 h, read-out: DIZ
[2] = test system: Bacillus subtilis; experiment: Antibacterial activity against Bacillus subtilis MTCC 441 at 750 ug/ml after 48 hr by cup-plate method; conditions: MTCC 441, 48 h, read-out: DIZ
[3] = test system: Bacillus subtilis; experiment: Antibacterial activity against Bacillus subtilis MTCC 441 at 500 ug/ml after 48 hr by cup-plate method; conditions: MTCC 441, 48 h, read-out: DIZ
[4] = test system: Micrococcus luteus; experiment: Antibacterial activity against Micrococcus luteus MTCC 1538 after 24 to 48 hr by tube dilution method
[5] = test system: Escherichia coli; experiment: Antibacterial activity against Escherichia coli MTCC 1573 after 24 to 48 hr by tube dilution method
[6] = test system: Penicillium chrysogenum; experiment: Antifungal activity against Penicillium chrysogenum MTCC 161 after 24 to 48 hr by tube dilution method
[7] = test system: Aspergillus niger; experiment: Antifungal activity against Aspergillus niger MTCC 2546 after 24 to 48 hr by tube dilution method
[8] = test system: Pseudomonas fluorescens; experiment: Antibacterial activity against Pseudomonas fluorescens MTCC 2421 after 24 to 48 hr by tube dilution method
[9] = test system: Bacillus pumilus; experiment: Antibacterial activity against Bacillus pumilus MTCC 1456 after 24 to 48 hr by tube dilution method
[10] = test system: Pseudomonas aeruginosa; experiment: Antibacterial activity against Pseudomonas aeruginosa MTCC 424 after 24 to 48 hr by tube dilution method
[11] = test system: Staphylococcus aureus; experiment: Antibacterial activity against Staphylococcus aureus MTCC 1430 after 24 to 48 hr by tube dilution method
[12] = test system: Penicillium chrysogenum; experiment: Antifungal activity against Penicillium chrysogenum MTCC 161 at 1250 ug/ml after 48 hr by cup-plate method; conditions: MTCC 161, 48 h, read-out: DIZ
[13] = test system: Penicillium chrysogenum; experiment: Antifungal activity against Penicillium chrysogenum MTCC 161 at 1000 ug/ml after 48 hr by cup-plate method; conditions: MTCC 161, 48 h, read-out: DIZ
[14] = test system: Penicillium chrysogenum; experiment: Antifungal activity against Penicillium chrysogenum MTCC 161 at 750 ug/ml after 48 hr by cup-plate method; conditions: MTCC 161, 48 h, read-out: DIZ
[15] = test system: Penicillium chrysogenum; experiment: Antifungal activity against Penicillium chrysogenum MTCC 161 at 500 ug/ml after 48 hr by cup-plate method; conditions: MTCC 161, 48 h, read-out: DIZ
[16] = test system: Penicillium chrysogenum; experiment: Antifungal activity against Penicillium chrysogenum MTCC 161 at 250 ug/ml after 48 hr by cup-plate method; conditions: MTCC 161, 48 h, read-out: DIZ
[17] = test system: Penicillium chrysogenum; experiment: Antifungal activity against Penicillium chrysogenum MTCC 161 at 100 ug/ml after 48 hr by cup-plate method; conditions: MTCC 161, 48 h, read-out: DIZ
[18] = test system: Aspergillus niger; experiment: Antifungal activity against Aspergillus niger MTCC 2546 at 1000 ug/ml after 48 hr by cup-plate method; conditions: MTCC 2546, 48 h, read-out: DIZ
[19] = test system: Aspergillus niger; experiment: Antifungal activity against Aspergillus niger MTCC 2546 at 500 ug/ml after 48 hr by cup-plate method; conditions: MTCC 2546, 48 h, read-out: DIZ
[20] = test system: Aspergillus niger; experiment: Antifungal activity against Aspergillus niger MTCC 2546 at 250 ug/ml after 48 hr by cup-plate method; conditions: MTCC 2546, 48 h, read-out: DIZ
[21] = test system: Aspergillus niger; experiment: Antifungal activity against Aspergillus niger MTCC 2546 at 100 ug/ml after 48 hr by cup-plate method; conditions: MTCC 2546, 48 h, read-out: DIZ
[22] = test system: Pseudomonas fluorescens; experiment: Antibacterial activity against Pseudomonas fluorescens MTCC 2421 at 1250 ug/ml after 48 hr by cup-plate method; conditions: MTCC 2421, 48 h, read-out: DIZ
[23] = test system: Pseudomonas fluorescens; experiment: Antibacterial activity against Pseudomonas fluorescens MTCC 2421 at 1000 ug/ml after 48 hr by cup-plate method; conditions: MTCC 2421, 48 h, read-out: DIZ
[24] = test system: Pseudomonas fluorescens; experiment: Antibacterial activity against Pseudomonas fluorescens MTCC 2421 at 500 ug/ml after 48 hr by cup-plate method; conditions: MTCC 2421, 48 h, read-out: DIZ
[25] = test system: Pseudomonas fluorescens; experiment: Antibacterial activity against Pseudomonas fluorescens MTCC 2421 at 250 ug/ml after 48 hr by cup-plate method; conditions: MTCC 2421, 48 h, read-out: DIZ
[26] = test system: Escherichia coli; experiment: Antibacterial activity against Escherichia coli MTCC 1573 at 1250 ug/ml after 48 hr by cup-plate method; conditions: MTCC 1573, 48 h, read-out: DIZ
[27] = test system: Micrococcus luteus; experiment: Antibacterial activity against Micrococcus luteus MTCC 1538 at 1000 ug/ml after 48 hr by cup-plate method; conditions: MTCC 1538, 48 h, read-out: DIZ
[28] = test system: Micrococcus luteus; experiment: Antibacterial activity against Micrococcus luteus MTCC 1538 at 750 ug/ml after 48 hr by cup-plate method; conditions: MTCC 1538, 48 h, read-out: DIZ
[29] = test system: Escherichia coli; experiment: Antibacterial activity against Escherichia coli MTCC 1573 at 500 ug/ml after 48 hr by cup-plate method; conditions: MTCC 1573, 48 h, read-out: DIZ
[30] = test system: Escherichia coli; experiment: Antibacterial activity against Escherichia coli MTCC 1573 at 250 ug/ml after 48 hr by cup-plate method; conditions: MTCC 1573, 48 h, read-out: DIZ
[31] = test system: Micrococcus luteus; experiment: Antibacterial activity against Micrococcus luteus MTCC 1538 at 1250 ug/ml after 48 hr by cup-plate method; conditions: MTCC 1538, 48 h, read-out: DIZ
[32] = test system: Micrococcus luteus; experiment: Antibacterial activity against Micrococcus luteus MTCC 1538 at 500 ug/ml after 48 hr by cup-plate method; conditions: MTCC 1538, 48 h, read-out: DIZ
[33] = test system: Micrococcus luteus; experiment: Antibacterial activity against Micrococcus luteus MTCC 1538 at 250 ug/ml after 48 hr by cup-plate method; conditions: MTCC 1538, 48 h, read-out: DIZ
[34] = test system: Bacillus pumilus; experiment: Antibacterial activity against Bacillus pumilus MTCC 1456 at 1250 ug/ml after 48 hr by cup-plate method; conditions: MTCC 1456, 48 h, read-out: DIZ
[35] = test system: Bacillus pumilus; experiment: Antibacterial activity against Bacillus pumilus MTCC 1456 at 1000 ug/ml after 48 hr by cup-plate method; conditions: MTCC 1456, 48 h, read-out: DIZ
[36] = test system: Bacillus pumilus; experiment: Antibacterial activity against Bacillus pumilus MTCC 1456 at 250 ug/ml after 48 hr by cup-plate method; conditions: MTCC 1456, 48 h, read-out: DIZ
[37] = test system: Bacillus pumilus; experiment: Antibacterial activity against Bacillus pumilus MTCC 1456 at 100 ug/ml after 48 hr by cup-plate method; conditions: MTCC 1456, 48 h, read-out: DIZ
[38] = test system: Staphylococcus aureus; experiment: Antibacterial activity against Staphylococcus aureus MTCC 1430 at 750 ug/ml after 48 hr by cup-plate method; conditions: MTCC 1430, 48 h, read-out: DIZ
[39] = test system: Staphylococcus aureus; experiment: Antibacterial activity against Staphylococcus aureus MTCC 1430 at 500 ug/ml after 48 hr by cup-plate method; conditions: MTCC 1430, 48 h, read-out: DIZ
[40] = test system: Staphylococcus aureus; experiment: Antibacterial activity against Staphylococcus aureus MTCC 1430 at 250 ug/ml after 48 hr by cup-plate method; conditions: MTCC 1430, 48 h, read-out: DIZ
[41] = test system: Pseudomonas aeruginosa; experiment: Antibacterial activity against Pseudomonas aeruginosa MTCC 424 at 1000 ug/ml after 48 hr by cup-plate method; conditions: MTCC 424, 48 h, read-out: DIZ
[42] = test system: Pseudomonas aeruginosa; experiment: Antibacterial activity against Pseudomonas aeruginosa MTCC 424 at 750 ug/ml after 48 hr by cup-plate method; conditions: MTCC 424, 48 h, read-out: DIZ
[43] = test system: Pseudomonas aeruginosa; experiment: Antibacterial activity against Pseudomonas aeruginosa MTCC 424 at 500 ug/ml after 48 hr by cup-plate method; conditions: MTCC 424, 48 h, read-out: DIZ
[44] = test system: Pseudomonas aeruginosa; experiment: Antibacterial activity against Pseudomonas aeruginosa MTCC 424 at 250 ug/ml after 48 hr by cup-plate method; conditions: MTCC 424, 48 h, read-out: DIZ
[45] = test system: Pseudomonas aeruginosa; experiment: Antibacterial activity against Pseudomonas aeruginosa MTCC 424 at 100 ug/ml after 48 hr by cup-plate method; conditions: MTCC 424, 48 h, read-out: DIZ

Work on `O=[N+]([O-])c1ccc(C2CC(c3cccc4ccccc34)=NN2c2ccccc2[N+](=O)[O-])cc1` (stereo not given) yielded a zone of inhibition at 1000 µg/mL [1] of 16 mm, a zone of inhibition at 750 µg/mL [2] of 15 mm and a zone of inhibition at 500 µg/mL [3] of 14 mm. For the same molecule, the MIC [4] was 30 µg/mL (≈ 68.4 µM), the MIC [5] was 30 µg/mL (≈ 68.4 µM) and the MIC [6] was 30 µg/mL (≈ 68.4 µM). It also gave an MIC [7] of 30 µg/mL (≈ 68.4 µM), an MIC [8] of 30 µg/mL (≈ 68.4 µM) and an MIC [9] of 30 µg/mL (≈ 68.4 µM). For the same molecule, the MIC [10] was 150 µg/mL (≈ 342 µM), the MIC [11] was 50 µg/mL (≈ 114 µM) and the zone of inhibition at 1250 µg/mL [12] was 26 mm. For the same molecule, the zone of inhibition at 1000 µg/mL [13] was 24 mm, the zone of inhibition at 750 µg/mL [14] was 20 mm and the zone of inhibition at 500 µg/mL [15] was 15 mm. The zone of inhibition at 250 µg/mL [16] was 14 mm, the zone of inhibition at 100 µg/mL [17] was 13 mm and the zone of inhibition at 1000 µg/mL [18] was 23 mm. For the same molecule, the zone of inhibition at 500 µg/mL [19] was 12 mm, the zone of inhibition at 250 µg/mL [20] was 11 mm and the zone of inhibition at 100 µg/mL [21] was 10 mm. It also gave a zone of inhibition at 1250 µg/mL [22] of 24 mm, a zone of inhibition at 1000 µg/mL [23] of 21 mm and a zone of inhibition at 500 µg/mL [24] of 13 mm. It also gave a zone of inhibition at 250 µg/mL [25] of 11 mm, a zone of inhibition at 1250 µg/mL [26] of 20 mm and a zone of inhibition at 1000 µg/mL [27] of 15 mm. It also gave a zone of inhibition at 750 µg/mL [28] of 13 mm, a zone of inhibition at 500 µg/mL [29] of 11 mm and a zone of inhibition at 250 µg/mL [30] of 10 mm. The zone of inhibition at 1250 µg/mL [31] was 17 mm, the zone of inhibition at 500 µg/mL [32] was 9 mm and the zone of inhibition at 250 µg/mL [33] was 8 mm. It also gave a zone of inhibition at 1250 µg/mL [34] of 25 mm, a zone of inhibition at 1000 µg/mL [35] of 23 mm and a zone of inhibition at 250 µg/mL [36] of 11 mm. The zone of inhibition at 100 µg/mL [37] was 10 mm, the zone of inhibition at 750 µg/mL [38] was 12 mm and the zone of inhibition at 500 µg/mL [39] was 10 mm. It also gave a zone of inhibition at 250 µg/mL [40] of 9 mm, a zone of inhibition at 1000 µg/mL [41] of 17 mm and a zone of inhibition at 750 µg/mL [42] of 16 mm. For the same molecule, the zone of inhibition at 500 µg/mL [43] was 15 mm, the zone of inhibition at 250 µg/mL [44] was 14 mm and the zone of inhibition at 100 µg/mL [45] was 13 mm.
